Assay results published in US5681604A, “Stain-inhibiting agent for dyes with affinity for protonatable nitrogen, compositions containing same and uses thereof” (priority 1993, dated 1997).

Experiments:
[1] = Stain inhibition: 66 nylon yarn immersed in F, D & C Red 40 / citric acid staining solution
Experimental: 3. […] A second yarn sample, Sample 2B, was immersed in staining/stain-inhibitor solution, Solution B, also for one minute. Both samples were then dried for 24 hours.
2. […] Thus, Solution 3B was prepared by adding 100 ppm of the ECG to Solution 3A.

mice = conditions: oral, in mice; cited from earlier work
[2] = commercially-available tannic acid from natural sources; cited from earlier work
Titration with NaOH = type: physicochemical
[3] = Stain inhibition: 66 nylon skein (yarn) soaked in cherry KOOL-AID solution; conditions: for AATCC Staining Scale Rating: 1 min soak, dried 24 h; for CIE L / CIE a / CIE b: Minolta Chromameter
Experimental: (§1) Each solution was prepared by mixing 1 gram of the KOOL-AID® powder with enough water to make 450 to 500 cm^3 of solution.
(§2) Solution 1A: prepared as set forth above, no sugar added.
(§3) Solution 1B: Solution 1A+50 parts per million (ppm) tannic acid (certified, Fisher Scientific Co.).
(§4) Solution 1C: Solution 1A+200 ppm tannic acid (same tannic acid as in Solution 1B, hereafter "TA").
(§5) After the solutions were prepared, four 1 in^2 (6.45 cm^2) samples (Carpet Samples 1A, 1B, 1C, and Control) were cut from twisted, heat-set 66 nylon carpet, mock-acid dyed, and four 1-gram samples of 66 nylon skein (Test Fabrics, Middlesex, N.J.) were obtained (Yarn Samples 1A, 1B, 1C, and Control). Carpet Samples 1A, 1B, and 1C were soaked in 50 ml. of Solutions 1A, 1B, and 1C, respectively, for 1 minute, and allowed to dry for 24 hours. The Carpet Control Sample was not exposed to any of the solutions. The same procedure was followed with Yarn Samples 1A, 1B, 1C, and Control. (The carpet and skeins had been scoured in 0.1% non-ionic detergent to remove surface grease and finish.)
(§6) All samples were rinsed thoroughly in distilled water, and allowed to dry.
(§7) The amount of staining on each sample was evaluated by comparison with the AATCC Staining Scale (AATCC Test Method, 175-1991), and by the CIE L, a, b values obtained from the Minolta Chromameter.

[4] = Stain inhibition: 66 nylon carpet soaked in cherry KOOL-AID solution; conditions: for AATCC Staining Scale Rating: 1 min soak, dried 24 h; for CIE L / CIE a / CIE b: Minolta Chromameter
Experimental: as §1, §2, §3, §4, §5, §6, §7

[5] = Stain-inhibiting activity (general statements)
[6] = 50 ppm TA in cherry KOOL-AID solution
[7] = 200 ppm TA in cherry KOOL-AID solution

## O=C(O[C@@H]1Cc2c(O)cc(O)cc2O[C@@H]1c1ccc(O)c(O)c1)c1cc(O)c(O)c(O)c1 [ECG, Epicatechin gallate]
[1]; 100 ppm ECG in Red 40 staining solution pH 2.8, 1 min
  AATCC: 7
[1]; 100 ppm ECG, Chromameter
  CIE L: 81
  CIE a: 4
  CIE b: 2

## O=C(OC[C@H]1O[C@@H](OC(=O)c2cc(O)c(O)c(OC(=O)c3cc(O)c(O)c(O)c3)c2)[C@H](OC(=O)c2cc(O)c(O)c(OC(=O)c3cc(O)c(O)c(O)c3)c2)[C@@H](OC(=O)c2cc(O)c(O)c(OC(=O)c3cc(O)c(O)c(O)c3)c2)[C@@H]1OC(=O)c1cc(O)c(O)c(OC(=O)c2cc(O)c(O)c(O)c2)c1)c1cc(O)c(O)c(OC(=O)c2cc(O)c(O)c(O)c2)c1 [TA, tannic acid]
mice
  LD50: 6000 mg/kg
[2]
  water solubility: water soluble
Titration with NaOH
  inflection point pH when titrated with NaOH: about 4.5
[3]; [6]
  AATCC Staining Scale Rating: 7
[3]; 50 ppm TA
  CIE L: 81
  CIE a: 12
  CIE b: 4
[3]; [7]
  AATCC Staining Scale Rating: 9
[3]; 200 ppm TA
  CIE L: 83
  CIE a: 8
  CIE b: 4
[4]; [6]
  AATCC Staining Scale Rating: 6
[4]; 50 ppm TA
  CIE L: 78
  CIE a: 9
  CIE b: 3
[4]; [7]
  AATCC Staining Scale Rating: 10
[4]; 200 ppm TA
  CIE L: 83
  CIE a: 0.8
  CIE b: 2

## Oc1cccc(O)c1O [pyrogallol]
[5]
  stain-inhibiting activity: do not appear to exhibit stain-inhibiting activity

## Oc1cccc(O)c1 [resorcinol]
[5]
  stain-inhibiting activity: do not appear to exhibit stain-inhibiting activity
